Test results as given in ChEMBL document CHEMBL1144622, “Novel malonamide derivatives as potent kappa opioid receptor agonists” (Bioorg Med Chem Lett, 2007).

Key:
[1] = target: Kappa-type opioid receptor (Homo sapiens, UniProt P41145); assay: Agonist activity at human kappa opioid receptor by [35S]GTP-gamma-S binding assay; format: functional
[2] = target: Opioid receptors; mu & kappa (Homo sapiens) (UniProt P41145+P35372); assay: Selectivity for human kappa opioid receptor over human mu opioid receptor; format: functional
[3] = target: Opioid receptors; delta & kappa (Homo sapiens) (UniProt P41145+P41143); assay: Selectivity for human kappa opioid receptor over human delta opioid receptor; format: functional
[4] = target: Cytochrome P450 2D6 (Homo sapiens, UniProt P10635); assay: Inhibition of CYP2D6; format: ADME
[5] = tested on: Rattus norvegicus; assay: Antinociceptive activity in rat at 300 ug, sc by formalin-induced flinching assay; format: functional
[6] = tested on: Mus musculus; assay: Analgesic activity in sc dosed mouse assessed as inhibition of acetic acid-induced writhing; format: functional

Chain of Kappa-type opioid receptor (P41145 whole entry): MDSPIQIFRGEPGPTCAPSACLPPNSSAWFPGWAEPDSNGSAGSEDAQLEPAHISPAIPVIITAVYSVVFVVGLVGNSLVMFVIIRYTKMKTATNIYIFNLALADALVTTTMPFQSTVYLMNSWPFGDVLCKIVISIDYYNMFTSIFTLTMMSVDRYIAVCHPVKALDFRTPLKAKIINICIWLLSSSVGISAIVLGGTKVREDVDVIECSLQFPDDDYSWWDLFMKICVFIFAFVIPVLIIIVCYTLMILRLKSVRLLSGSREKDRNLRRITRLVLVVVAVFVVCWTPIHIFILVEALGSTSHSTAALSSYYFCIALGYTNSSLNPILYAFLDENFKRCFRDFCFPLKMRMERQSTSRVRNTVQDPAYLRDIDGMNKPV
Chain of Cytochrome P450 2D6 (P10635 whole entry): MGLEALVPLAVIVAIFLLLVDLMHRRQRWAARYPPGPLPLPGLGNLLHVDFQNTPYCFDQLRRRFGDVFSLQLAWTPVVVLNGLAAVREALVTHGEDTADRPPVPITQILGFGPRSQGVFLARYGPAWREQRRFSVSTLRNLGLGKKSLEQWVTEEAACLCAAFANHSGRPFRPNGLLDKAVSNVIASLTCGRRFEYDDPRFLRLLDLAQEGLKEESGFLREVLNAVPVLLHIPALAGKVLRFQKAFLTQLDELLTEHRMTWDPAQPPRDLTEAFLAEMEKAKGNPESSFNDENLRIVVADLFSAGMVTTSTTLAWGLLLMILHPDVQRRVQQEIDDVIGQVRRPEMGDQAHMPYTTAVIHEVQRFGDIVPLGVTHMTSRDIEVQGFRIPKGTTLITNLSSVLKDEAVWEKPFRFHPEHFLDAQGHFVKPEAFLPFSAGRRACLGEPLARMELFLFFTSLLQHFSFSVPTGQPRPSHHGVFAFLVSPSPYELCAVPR
Chain of Opioid receptors; delta & kappa (Homo sapiens) (P41143 whole entry, looked up): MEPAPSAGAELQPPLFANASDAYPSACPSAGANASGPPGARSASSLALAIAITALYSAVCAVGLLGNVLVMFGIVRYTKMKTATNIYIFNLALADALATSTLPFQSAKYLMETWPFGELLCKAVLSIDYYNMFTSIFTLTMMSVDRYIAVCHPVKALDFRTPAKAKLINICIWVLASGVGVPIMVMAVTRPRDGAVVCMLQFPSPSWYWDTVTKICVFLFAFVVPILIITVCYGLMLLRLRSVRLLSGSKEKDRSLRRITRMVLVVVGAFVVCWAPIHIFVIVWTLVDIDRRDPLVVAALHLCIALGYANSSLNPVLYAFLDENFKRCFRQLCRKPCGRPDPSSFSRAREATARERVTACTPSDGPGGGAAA
Chain of Opioid receptors; delta & kappa (Homo sapiens) (P41145 whole entry, looked up): as the sequence (P41145 whole entry) above
Chain of Opioid receptors; mu & kappa (Homo sapiens) (P35372 whole entry, looked up): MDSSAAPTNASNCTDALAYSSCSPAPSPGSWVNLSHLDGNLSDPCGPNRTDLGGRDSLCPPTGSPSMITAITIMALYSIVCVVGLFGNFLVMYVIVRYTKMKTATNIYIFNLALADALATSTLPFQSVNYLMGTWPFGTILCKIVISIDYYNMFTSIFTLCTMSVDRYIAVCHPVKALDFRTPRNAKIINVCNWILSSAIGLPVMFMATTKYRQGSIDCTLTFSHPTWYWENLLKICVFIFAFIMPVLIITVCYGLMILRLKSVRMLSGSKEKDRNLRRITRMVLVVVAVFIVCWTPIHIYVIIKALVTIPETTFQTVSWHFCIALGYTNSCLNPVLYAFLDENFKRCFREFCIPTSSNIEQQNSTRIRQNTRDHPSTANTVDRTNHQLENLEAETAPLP
Chain of Opioid receptors; mu & kappa (Homo sapiens) (P41145 whole entry, looked up): as the sequence (P41145 whole entry) above

SMILES | Ki [1] | Ratio Ki [2] | Ratio Ki [3] | IC50 [4] | Activity [5] | ED50 [6]
CN(C(=O)CC(=O)Nc1cccnc1)[C@H](CN1CC[C@H](O)C1)c1ccccc1 | 0.0013 µM | 450 | 15 | > 10 µM | – | –
CN(C(=O)CC(=O)NCc1ccccc1)[C@H](CN1CC[C@H](O)C1)c1ccccc1 | 0.015 µM | 120 | 40 | 3.2 µM | – | –
CN(C(=O)CCC(=O)Nc1cccnc1)[C@H](CN1CC[C@H](O)C1)c1ccccc1 | 0.28 µM | – | 5 | > 10 µM | – | –
CN(C(=O)CC(=O)Nc1nccs1)[C@H](CN1CC[C@H](O)C1)c1ccccc1 | 0.00053 µM | 180 | 71 | 0.7 µM | – | –
CN(C(=O)CC(=O)Nc1ccc(CNS(C)(=O)=O)cc1)[C@H](CN1CC[C@H](O)C1)c1ccccc1 | 0.096 µM | 4.3 | 10 | 5.4 µM | – | –
CN(C(=O)CCC(=O)Nc1nccs1)[C@H](CN1CC[C@H](O)C1)c1ccccc1 | 0.023 µM | – | 14 | 3.4 µM | – | –
CN(C(=O)CC(=O)Nc1ccc(NS(C)(=O)=O)cc1)[C@H](CN1CC[C@H](O)C1)c1ccccc1 | 0.029 µM | 4.8 | 39 | 10 µM | – | –
CN(C(=O)CC(=O)Nc1ccccc1)[C@H](CN1CC[C@H](O)C1)c1ccccc1 | 0.00027 µM | 120 | 25 | 5.3 µM | 93% | 0.03 mg/kg
CN(C(=O)CCC(=O)Nc1ccccc1)[C@H](CN1CC[C@H](O)C1)c1ccccc1 | 0.006 µM | – | 220 | 8.6 µM | – | –
CN(C(=O)NCC(=O)Nc1ccccc1)[C@H](CN1CC[C@H](O)C1)c1ccccc1 | 0.0065 µM | 110 | 8.7 | 5.1 µM | – | –
